The record followed here is patent US12172975B2, “1H-indazole carboxamides as receptor-interacting protein kinase 1 inhibitors (RIPK1)” (BRISTOL-MYERS SQUIBB COMPANY, priority 2018, dated 2024).

Assay [1] relates to MLKL phosphorylation in HT29-L23 human colorectal adenocarcinoma cells. Kind of assay: MLKL Phosphorylation High-Content Assay. It is filed as cell-based. Conditions: necroptosis induced with TNFα, SMAC mimetic and Z-VAD, 6 h, read-out: pMLKL (IC50). The essentials: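 HT29-L23 cells were induced to necroptosis with TNFα (35 ng/mL), SMAC mimetic (700 nM) and Z-VAD (140 nM) for 6 h at 37 °C. Phospho-MLKL (S358) immunofluorescence was imaged and quantified per cell; maximal inhibition set by Nec-1s (6.25 μM), and IC50/Ymax from 4-parameter logistic fit.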

The target of assay [2] is His-GST-TVMV-hRIPK1 (1-324) (Homo sapiens (Human), UniProt Q13546). Kind of assay: RIPK1 HTRF Binding Assay. Conditions: read-out: RIPK1 HTRF (IC50); FRET probe displacement, 1 h at rt. A general note: TR-FRET usually uses a lanthanide donor and a delayed reading to cut background.

Where a name gives a salt, the structure may show the parent alone. Read-outs that look alike come from different tables or passages of the source.

Chain of His-GST-TVMV-hRIPK1 (1-324) (Q13546 1-324): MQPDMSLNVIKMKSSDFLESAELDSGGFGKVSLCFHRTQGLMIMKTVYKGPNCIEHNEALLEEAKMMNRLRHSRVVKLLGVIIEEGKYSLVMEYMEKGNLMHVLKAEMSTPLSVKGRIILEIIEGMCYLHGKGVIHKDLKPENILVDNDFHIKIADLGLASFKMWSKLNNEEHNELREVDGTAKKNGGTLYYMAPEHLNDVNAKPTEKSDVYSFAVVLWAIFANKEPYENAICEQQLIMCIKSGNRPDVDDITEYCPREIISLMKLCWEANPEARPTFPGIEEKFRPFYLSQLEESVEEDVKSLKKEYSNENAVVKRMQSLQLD

What is called IC50 is the midpoint of a concentration-inhibition curve. `CNC(=O)c1n[nH]c2cc(-c3cnc(OC)c(C(=O)NC4CCCC(OCC(F)(F)F)C4)c3)ccc12` (stereo not shown) [Example 87, 6-(6-methoxy-5-{[3-(2,2,2-trifluoroethoxy)cyclohexyl]-carbamoyl}pyridin-3-yl)-N-methyl-1H-indazole-3-carbox-amide]: the IC50 in assay [1] turned out to be 13 nM; in assay [2], 3.9 nM.

With `CCOC(=O)C(C)(C)CNC(=O)c1cc(-c2ccc3c(C(=O)NC)n[nH]c3c2)cnc1OC` [Example 88, ethyl 3-({2-methoxy-5-[3-(methylcarbamoyl)-1H-indazol-6-yl]pyridin-3-yl}-formamido)-2,2-dimethyl-propanoate], the concentration for half-maximal inhibition (IC50) in assay [1] (Homo sapiens) was found to be 250 nM; in assay [2], 52 nM.

`CNC(=O)c1n[nH]c2cc(-c3cnc(OC)c(C(=O)NCC(C)(C)C(=O)OC(C)(C)C)c3)ccc12` [Example 90, tert-butyl 3-({2-methoxy-5-[3-(methylcarbamoyl)-1H-indazol-6-yl]pyridin-3-yl}-formamido)-2,2-dimethyl-propanoate]: the IC50 in assay [1] (Homo sapiens) is 47 nM; in assay [2] it was 16 nM.

With `CNC(=O)c1n[nH]c2cc(-c3cnc(OC)c(C(=O)NCC(C)(C)C(=O)NCc4ccc(F)cc4)c3)ccc12` [Example 91, 6-{5-[(2-{[(4-fluorophenyl)-methyl]carbamoyl}-2,2-dimethylethyl)carbamoyl]-6-methoxypyridin-3-yl}-N-methyl-1H-indazole-3-carboxamide], the half-inhibitory concentration (IC50) is 16 nM in assay [1] (Homo sapiens) and 1.8 nM in assay [2].

For the molecule `CNC(=O)c1n[nH]c2cc(-c3cnc(OC)c(C(=O)NCc4ccccc4OC(C)C)c3)ccc12` [Example 93, 6-[6-methoxy-5-({[2-(propan-2-yloxy)phenyl]methyl}-carbamoyl)pyridin-3-yl]-N-methyl-1H-indazole-3-carbox-amide], the IC50 came out at 8.3 nM in assay [1] and 1.3 nM in assay [2].

Turning to `CNC(=O)c1n[nH]c2cc(-c3cnc(OC)c(C(=O)NCc4cccnc4OC)c3)ccc12` [Example 94, 6-(6-methoxy-5-{[(2-methoxy-pyridin-3-yl)methyl]carbam-oyl}pyridin-3-yl)-N-methyl-1H-indazole-3-carboxamide, TFA], the figures for the IC50 in assay [1] and in assay [2] were 96 nM and 9.9 nM, respectively.

Consider `CNC(=O)c1n[nH]c2cc(-c3cnc(OC)c(C(=O)NC45CC6CC(C4)CC(c4ccccc4)(C6)C5)c3)ccc12` [Example 95, 6-{6-methoxy-5-[(3-phenyl-adamantan-1-yl)carbamoyl]-pyridin-3-yl}-N-methyl-1H-indazole-3-carboxamide], for which the results for the IC50 in assay [1] (Homo sapiens) and in assay [2] were 9.3 nM and 17 nM, respectively.

Regarding `CNC(=O)c1n[nH]c2cc(-c3cnc(OC)c(C(=O)NCC4CCCN4C(=O)C(C)(C)C(F)(F)F)c3)ccc12` (stereo not shown) [Example 96, 6-[6-methoxy-5-({[1-(3,3,3-trifIuoro-2,2-dimethylpropan-oyl)pyrrolidin-2-yl]methyl}-carbamoyl)pyridin-3-yl]-N-methyl-1H-indazole-3-carboxamide], the results for the IC50 in assay [1] and in assay [2] were 4.6 nM and 34 nM, respectively.

Take `CNC(=O)c1n[nH]c2cc(-c3cnc(OC)c(C(=O)NC4CCCC(C(=O)N5CCOCC5)C4)c3)ccc12` (stereo not shown) [Example 98, 6-(6-methoxy-5-{[3-(morpho-line-4-carbonyl)cyclohexyl]-carbamoyl}pyridin-3-yl)-N-methyl-1H-indazole-3-carbox-amide]: the 50% inhibitory concentration (IC50) in assay [1] was determined as 46 nM; in assay [2], 26 nM.

Take `CNC(=O)c1n[nH]c2cc(-c3cnc(OC)c(C(=O)NC4CCCC(C(=O)N5CCCC5)C4)c3)ccc12` (stereo not shown) [Example 99, 6-(6-methoxy-5-{[3-(pyrrol-idine-1-carbonyl)cyclohexyl]-carbamoyl}pyridin-3-yl)-N-methyl-1H-indazole-3-carbox-amide]: the half-maximal inhibitory concentration (IC50) in assay [1] was determined as 14 nM; in assay [2] it was 11 nM.

With `CCCN(C)C(=O)C1CCCC(NC(=O)c2cc(-c3ccc4c(C(=O)NC)n[nH]c4c3)cnc2OC)C1` (stereo not shown) [Example 100, 6-[6-methoxy-5-({3-[methyl-(propyl)carbamoyl]cyclo-hexyl}carbamoyl)pyridin-3-yl]-N-methyl-1H-indazole-3-carboxamide], the IC50 in assay [1] (Homo sapiens) was found to be 63 nM; in assay [2], 18 nM.

Consider `CNC(=O)c1n[nH]c2cc(-c3cnc(OC)c(C(=O)NC(C)c4cccc(C(F)(F)F)c4)c3)ccc12` (stereo not shown) [Example 101, 6-[6-methoxy-5-({1-[3-(tri-fluoromethyl)phenyl]ethyl}-carbamoyl)pyridin-3-yl]-N-methyl-1H-indazole-3-carbox-amide], for which the half-maximal inhibitory concentration (IC50) in assay [1] is 19 nM; in assay [2], 4.5 nM.

As to `CNC(=O)c1n[nH]c2cc(-c3cnc(OC)c(C(=O)NCc4ccc(F)c(C(F)(F)F)c4)c3)ccc12` [Example 104, 6-[5-({[4-fluoro-3-(trifluoro-methyl)phenyl]methyl}carbam-oyl)-6-methoxypyridin-3-yl]-N-methyl-1H-indazole-3-carboxamide], the IC50 in assay [1] amounted to 93 nM; in assay [2] it was 40 nM.

Take `CNC(=O)c1n[nH]c2cc(-c3cnc(OC)c(C(=O)NCc4cccnc4OCC4CCC4)c3)ccc12` [Example 112, 6-[5-({[2-(cyclobutylmeth-oxy)pyridin-3-yl]methyl}-carbamoyl)-6-methoxypyridin-3-yl]-N-methyl-1H-indazole-3-carboxamide]: the IC50 was 7.6 nM in assay [1] (Homo sapiens) and 4.8 nM in assay [2].

In the case of `CNC(=O)c1n[nH]c2cc(-c3cnc(OC)c(C(=O)NCc4ccccc4OC4CCCCC4)c3)ccc12` [Example 113, 6-[5-({[2-(cyclohexyloxy)-phenyl]methyl}carbamoyl)-6-methoxypyridin-3-yl]-N-methyl-1H-indazole-3-carbox-amide], the half-inhibitory concentration (IC50) in assay [1] was determined as 9.7 nM; in assay [2], 27 nM.

`CNC(=O)c1n[nH]c2cc(-c3cnc(OC)c(C(=O)NCc4cccc(OCC5CCC5)c4)c3)ccc12` [Example 115, 6-[5-({[3-(cyclobutylmeth-oxy)phenyl]methyl}carbam-oyl)-6-methoxypyridin-3-yl]-N-methyl-1H-indazole-3-carboxamide]: the half-maximal inhibitory concentration (IC50) in assay [1] was 100 nM; in assay [2], 0.04 nM.

On to `CNC(=O)c1n[nH]c2cc(-c3cnc(OC)c(C(=O)NCC4CCCC4(C)C)c3)ccc12` (stereo not shown) [Example 116, 6-(5-{[(2,2-dimethylcyclo-pentyl)methyl]carbamoyl}-6-methoxypyridin-3-yl)-N-methyl-1H-indazole-3-carbox-amide], for which the IC50 in assay [1] was 54 nM; in assay [2] it was 9.6 nM.

On to `CNC(=O)c1n[nH]c2cc(-c3cnc(OC)c(C(=O)NCc4ncccc4OCC4CCC4)c3)ccc12` [Example 117, 6-[5-({[3-(cyclobutylmethoxy)-pyridin-2-yl]methyl}carbam-oyl)-6-methoxypyridin-3-yl]-N-methyl-1H-indazole-3-carboxamide, TFA], for which the values for the IC50 in assay [1] and in assay [2] were 11 nM and 2.6 nM, respectively.

For `CNC(=O)c1n[nH]c2cc(-c3cnc(OC)c(C(=O)NC4CCCC(Oc5ccccc5)C4)c3)ccc12` (stereo not shown) [Example 118, 6-{6-methoxy-5-[(3-phenoxy-cyclohexyl)carbamoyl]pyridin-3-yl}-N-methyl-1H-indazole-3-carboxamide], the IC50 in assay [1] (Homo sapiens) is 2.6 nM; in assay [2], 6.2 nM.

`CNC(=O)c1n[nH]c2cc(-c3cnc(OC)c(C(=O)NCc4cccc(OC(F)(F)F)c4F)c3)ccc12` [Example 119, 6-[5-({[2-fluoro-3-(trifluoro-methoxy)phenyl]methyl}-carbamoyl)-6-methoxy-pyridin-3-yl]-N-methyl-1H-indazole-3-carboxamide]: the 50% inhibitory concentration (IC50) in assay [1] (Homo sapiens) stood at 110 nM; in assay [2] it was 33 nM.

Consider `CNC(=O)c1n[nH]c2cc(-c3cnc(OC)c(C(=O)NC4CCCC(C(=O)N(C)C)C4)c3)ccc12` (stereo not shown) [Example 120, 6-(5-{[3-(dimethylcarbam-oyl)cyclohexyl]carbamoyl}-6-methoxypyridin-3-yl)-N-methyl-1H-indazole-3-carbox-amide], for which the concentration for half-maximal inhibition (IC50) in assay [1] was 100 nM; in assay [2], 11 nM.

For `CCN(CC)C(=O)C1CCCC(NC(=O)c2cc(-c3ccc4c(C(=O)NC)n[nH]c4c3)cnc2OC)C1` (stereo not shown) [Example 121, 6-(5-{[3-(diethylcarbamoyl)-cyclohexyl]carbamoyl}-6-methoxypyridin-3-yl)-N-methyl-1H-indazole-3-carbox-amide], the IC50 in assay [1] came out at 7.5 nM; in assay [2], 6.1 nM.

For the molecule `CCN(C)C(=O)C1CCCC(NC(=O)c2cc(-c3ccc4c(C(=O)NC)n[nH]c4c3)cnc2OC)C1` (stereo not shown) [Example 122, 6-[5-({3-[ethyl(methyl)carbam-oyl]cyclohexyl}carbamoyl)-6-methoxypyridin-3-yl]-N-methyl-1H-indazole-3-carboxamide], the IC50 in assay [1] is 120 nM; in assay [2], 12 nM.

Take `CCCN(CC1CC1)C(=O)C1CCCC(NC(=O)c2cc(-c3ccc4c(C(=O)NC)n[nH]c4c3)cnc2OC)C1` (stereo not shown) [Example 123, 6-[5-({3-[(cyclopropylmethyl)-(propyl)carbamoyl]cyclohexyl}-carbamoyl)-6-methoxypyridin-3-yl]-N-methyl-1H-indazole-3-carboxamide]: the figures for the half-inhibitory concentration (IC50) in assay [1] (Homo sapiens) and in assay [2] were 75 nM and 21 nM, respectively.

As to `CCN(CC1CCC1)C(=O)C1CCCC(NC(=O)c2cc(-c3ccc4c(C(=O)NC)n[nH]c4c3)cnc2OC)C1` (stereo not shown) [Example 124, 6-[5-({3-[(cyclobutylmethyl)-(ethyl)carbamoyl]cyclohexyl}-carbamoyl)-6-methoxypyridin-3-yl]-N-methyl-1H-indazole-3-carboxamide], the IC50 in assay [1] (Homo sapiens) worked out at 83 nM; in assay [2], 26 nM.

Turning to `CNC(=O)c1n[nH]c2cc(-c3cnc(OC)c(C(=O)NC4CCCC(C(=O)N(C)C5CC5)C4)c3)ccc12` (stereo not shown) [Example 125, 6-[5-({3-[cyclopropyl(methyl)-carbamoyl]cyclohexyl}carbam-oyl)-6-methoxypyridin-3-yl]-N-methyl-1H-indazole-3-carbox-amide], the IC50 in assay [1] was determined as 8.8 nM; in assay [2], 12 nM.
